Measured values from ChEMBL document CHEMBL5584231, “Rational design of a new short anticancer peptide with good potential for cancer treatment” (Eur J Med Chem, 2024).
Active and inactive are the calls of the source. The calls are words filed in the database; no cut-off is given here.

Tests used:
HeLa = assay: Cytotoxicity against human HeLa cells assessed as inhibition of cell growth incubated for 1 hr by MTT assay; format: functional, cell-based
MCF7 [1] = assay: Cytotoxicity against human MCF7 cells assessed as inhibition of cell growth incubated for 1 hr by MTT assay; format: functional, cell-based; details: MCF7, 1 h
A549 = assay: Cytotoxicity against human A549 cells assessed as inhibition of cell growth incubated for 1 hr by MTT assay; format: functional, cell-based; details: A549, 1 h
[2] = Cytotoxicity against HK-2 cells assessed as inhibition of cell growth incubated for 1 hr by MTT assay; format: toxicity, cell-based; details: human
[3] = Therapeutic index, ratio of HC10 for mouse RBC to IC50 for cytotoxicity against human HeLa cells; format: toxicity, cell-based; details: mouse RBC and HeLa cells, read-out: TI
[4] = Therapeutic index, ratio of HC10 for mouse RBC to IC50 for cytotoxicity against human MCF7 cells; format: toxicity, cell-based; details: mouse RBC and MCF7 cells, read-out: TI
[5] = Therapeutic index, ratio of HC10 for mouse RBC to IC50 for cytotoxicity against RG cells (unknown origin); format: toxicity, cell-based; details: mouse RBC and RG cells, read-out: TI
[6] = Therapeutic index, ratio of HC10 for mouse RBC to IC50 for cytotoxicity against human A549 cells; format: toxicity, cell-based; details: mouse RBC and A549 cells, read-out: TI
[7] = Hemolytic activity in mouse RBC at 12.5 uM incubated for 1 hr by absorbance based assay relative to control; format: toxicity, cell-based, Erythrocyte; details: red blood cells (erythrocytes), read-out: Activity
Cell membrane [8] = assay: Disruption of cell membrane in human MCF7 cells assessed as LDH release at 40 uM incubated for 1 hr by fluorescence based microplate reader analysis relative to control; format: cell membranes
Cell membrane [9] = assay: Induction of morphological changes in cell membrane of human MCF7 cells assessed as membrane damage at 1 times IC50 incubated for 1 hr by SEM analysis; format: cell membranes
Cell membrane [10] = assay: Induction of morphological changes in cell membrane of human MCF7 cells assessed as cell depression at 1 times IC50 incubated for 1 hr by SEM analysis; format: cell membranes
Cell membrane [11] = assay: Disruption of cell membrane integrity in human MCF7 cells assessed as increase in PI fluorescence at 1 times IC50 by laser confocal scanning microscopic analysis; details: time 0-120 min, TDE = time-dependent effect
Cell membrane [12] = assay: Disruption of cell membrane integrity in human MCF7 cells assessed as increase in PI fluorescence measured after 1 hr by laser confocal scanning microscopic analysis; format: cell membranes
Cell membrane [13] = assay: Induction of cell membrane damage in human MCF7 cells assessed as protein leakage at 1 to 2 times IC50 measured after 0.5 to 6 hrs by UV based analysis; format: cell membranes; details: time 0.5-6 hrs
Cell membrane [14] = assay: Induction of cell membrane damage in human MCF7 cells assessed as nucleic acid leakage at 1 to 2 times IC50 measured after 0.5 to 6 hrs by UV based analysis; format: cell membranes; details: time 0.5-6 hrs
MCF7 [15] = assay: Cytotoxicity against human MCF7 cells assessed as cell killing at 1 times IC50 measured within 12 hrs by MTT assay; format: functional, cell-based
MCF7 [16] = assay: Cytotoxicity against human MCF7 cells assessed as cell killing at 1 times IC50 measured at 24 hrs by MTT assay; format: functional, cell-based
MCF7 [17] = assay: Cytotoxicity against human MCF7 cells assessed as cell viability at 2 times IC50 measured within 8 hrs by MTT assay; format: functional, cell-based
MCF7 [18] = assay: Cytotoxicity against human MCF7 cells assessed as cell survival at 2 times IC50 incubated for 12 hrs by MTT assay relative to control; format: functional
MCF7 [19] = assay: Cytotoxicity against human MCF7 cells assessed as cell survival at 2 times IC50 incubated for 24 hrs by MTT assay relative to control; format: functional
Cell membrane [20] = assay: Disruption of cell membrane in human MCF7 cells assessed as LDH release at 2.5 to 40 uM incubated for 1 hr by fluorescence based microplate reader analysis; format: cell membranes; details: dose 2.5-40 µM
Cell membrane [21] = assay: Induction of morphological changes in cell membrane of human MCF7 cells assessed as effect on normal cell shape with intact membrane surface at 1 to 2 times IC50 incubated for 1 hr by SEM analysis; format: cell membranes
Cell membrane [22] = assay: Disruption of cell membrane integrity in human MCF7 cells assessed as increase in PI fluorescence at 1 times IC50 measured after 0 to 120 mins by laser confocal scanning microscopic analysis; format: cell membranes; details: time 0-120 min
Cell membrane [23] = assay: Disruption of cell membrane integrity in human MCF7 cells assessed as increase in PI fluorescence at 2 times IC50 measured after 0 to 120 mins by laser confocal scanning microscopic analysis; format: cell membranes; details: time 0-120 min
Cell membrane [24] = assay: Disruption of cell membrane integrity in human MCF7 cells assessed as increase in PI fluorescence at 1 to 2 times IC50 measured after 1 hr by laser confocal scanning microscopic analysis; format: cell membranes
MCF7 [25] = assay: Effect on cell cycle progression in human MCF7 cells at 1 times IC50 measured after 1 hr by PI/RNase staining based flow cytometry analysis; format: functional
MCF7 [26] = assay: Induction of cell cycle arrest at G2/M phase in human MCF7 cells assessed as increase in cells at G2/M phase at 1 times IC50 measured after 24 hrs by PI/RNase staining based flow cytometry analysis; format: functional
MCF7 [27] = assay: Induction of apoptosis in human MCF7 cells assessed as live cells at 1 times IC50 measured after 24 hrs by Annexin V-FITC staining based flow cytometry analysis (reference value: 92%); format: functional
MCF7 [28] = assay: Induction of apoptosis in human MCF7 cells assessed as early apoptotic cells at 1 times IC50 measured after 24 hrs by Annexin V-FITC staining based flow cytometry analysis (reference value: 0.014%); format: functional
MCF7 [29] = assay: Induction of apoptosis in human MCF7 cells assessed as late apoptotic cells at 1 times IC50 measured after 24 hrs by Annexin V-FITC staining based flow cytometry analysis (reference value: 1.60%); format: functional
MCF7 [30] = assay: Induction of apoptosis in human MCF7 cells assessed as dead cells at 1 times IC50 measured after 24 hrs by Annexin V-FITC staining based flow cytometry analysis (reference value: 6.41%); format: functional
MCF7 [31] = assay: Induction of apoptosis in human MCF7 cells assessed as increase in intracellular ROS generation at 1 times IC50 measured after 0 to 360 mins by DCFH-DA staining based analysis; format: functional, cell-based; details: time 0-360 min
MCF7 [32] = assay: Antimigratory activity in human MCF7 cells assessed as reduction in cell migration at 1 times IC50 measured after 24 hrs by scratch-wound healing assay; format: functional, cell-based
MCF7 [33] = assay: Anti-invasion activity in human MCF7 cells assessed as reduction in number of passing cells on polycarbonate membrane at 1 times IC50 measured after 24 hrs by crystal violet staining based transwell assay; format: functional, cell-based
4T1 [34] = assay: Antitumor activity against mouse 4T1 cells implanted in female Balb/c mouse assessed as reduction in tumor growth at 12 micromol/kg, ip administered every other day for 2 weeks and measured every 2 days; format: functional, organism-based; details: dose 12.0 µmol/kg
4T1 [35] = assay: Antitumor activity against mouse 4T1 cells implanted in female Balb/c mouse assessed as reduction in tumor weight at 12 micromol/kg, ip administered every other day for 2 weeks and measured every 2 days relative to control; format: functional; set-up: scale not given: the % may be the effect or the level left; details: dose 12 µmol/kg
[36] = Toxicity in female Balb/c mouse implanted with mouse 4T1 cells assessed as reduction in body weight at 12 micromol/kg, ip administered every other day for 2 weeks and measured every 2 days; format: organism-based; details: in vivo, 336 h, dose 12 µmol/kg
[37] = Toxicity in female Balb/c mouse implanted with mouse 4T1 cells assessed as animal death at 12 micromol/kg, ip administered every other day for 2 weeks; format: organism-based; details: in vivo, 336 h, dose 12 µmol/kg
[38] = Toxicity in female Balb/c mouse implanted with mouse 4T1 cells assessed as pathological changes in heart at 12 micromol/kg, ip administered every other day for 2 weeks by H and E staining based analysis; format: organism-based; details: in vivo, 336 h, dose 12 µmol/kg
[39] = Toxicity in female Balb/c mouse implanted with mouse 4T1 cells assessed as pathological changes in liver at 12 micromol/kg, ip administered every other day for 2 weeks by H and E staining based analysis; format: organism-based; details: in vivo, 336 h, dose 12 µmol/kg
[40] = Toxicity in female Balb/c mouse implanted with mouse 4T1 cells assessed as pathological changes in spleen at 12 micromol/kg, ip administered every other day for 2 weeks by H and E staining based analysis; format: organism-based; details: in vivo, 336 h, dose 12 µmol/kg
[41] = Toxicity in female Balb/c mouse implanted with mouse 4T1 cells assessed as pathological changes in lung at 12 micromol/kg, ip administered every other day for 2 weeks by H and E staining based analysis; format: organism-based; details: in vivo, 336 h, dose 12 µmol/kg
[42] = Toxicity in female Balb/c mouse implanted with mouse 4T1 cells assessed as pathological changes in kidney at 12 micromol/kg, ip administered every other day for 2 weeks by H and E staining based analysis; format: organism-based; details: in vivo, 336 h, dose 12 µmol/kg
4T1 [43] = assay: Antitumor activity against mouse 4T1 cells implanted in female Balb/c mouse assessed as increase in tumor cell apoptosis at 12 micromol/kg, ip administered every other day for 2 weeks by H and E staining based analysis; format: functional, organism-based; details: dose 12.0 µmol/kg
4T1 [44] = assay: Antitumor activity against mouse 4T1 cells implanted in female Balb/c mouse assessed as increase in tumor cell necrosis at 12 micromol/kg, ip administered every other day for 2 weeks by H and E staining based analysis; format: functional, organism-based; details: dose 12.0 µmol/kg
[45] = Acute toxicity in female Balb/c mouse assessed as reduction in survival rate at 30 mg/kg, ip administered as single dose and measured for 7 days; format: organism-based; details: in vivo, 168 h, time 7 day
[46] = Acute toxicity in female Balb/c mouse assessed as reduction in survival rate at 38 to 60 mg/kg, ip administered as single dose and measured for 7 days; format: organism-based; details: in vivo, 168 h, dose 38-60 mg/kg, time 7 day
[47] = Acute toxicity in ip dosed female Balb/c mouse administered as single dose and measured for 7 days by karber method; format: organism-based; details: in vivo, time 7 day
[48] = Acute toxicity in female Balb/c mouse assessed as heart damage at approximately LD50 administered as single ip dose by H and E staining based analysis; format: organism-based; details: in vivo
[49] = Acute toxicity in female Balb/c mouse assessed as shrinking cytoplasm in kidney at approximately LD50 administered as single ip dose by H and E staining based analysis; format: organism-based; details: in vivo
[50] = Acute toxicity in female Balb/c mouse assessed as necrosis in kidney at approximately LD50 administered as single ip dose by H and E staining based analysis; format: organism-based; details: in vivo

CC[C@H](C)[C@H](NC(=O)CN)C(=O)NCC(=O)N[C@@H](C)C(=O)N[C@H](C(=O)N[C@@H](CC(C)C)C(=O)N[C@@H](CCCCN)C(=O)N[C@H](C(=O)N[C@@H](CC(C)C)C(=O)N[C@H](C(=O)N[C@H](C(=O)NCC(=O)N[C@@H](CC(C)C)C(=O)N1CCC[C@H]1C(=O)N[C@@H](C)C(=O)N[C@@H](CC(C)C)C(=O)N[C@H](C(=O)N[C@@H](CO)C(=O)N[C@@H](Cc1c[nH]c2ccccc12)C(=O)N[C@H](C(=O)N[C@@H](CCCCN)C(=O)N[C@@H](CCCNC(=N)N)C(=O)N[C@@H](CCCCN)C(=O)N[C@@H](CCCNC(=N)N)C(=O)N[C@@H](CCC(N)=O)C(=O)N[C@@H](CCC(N)=O)C(N)=O)[C@@H](C)CC)[C@@H](C)CC)[C@@H](C)O)[C@@H](C)O)C(C)C)C(C)C [MELITTIN]
IC50 (HeLa): 934 nM | IC50 (MCF7 [1]): 1790 nM | IC50 (A549): 1830 nM | IC50 at 1 h [2]: 802 nM | selectivity ratio [3]: 1.44 | selectivity ratio [4]: 0.747 | selectivity ratio [5]: 0.859 | selectivity ratio [6]: 0.733 | hemolysis at 1 h, 12.5 µM [7]: > 85% | Activity (Cell membrane [8]): 86.8% | Activity (Cell membrane [9]): Active | Activity (Cell membrane [10]): Active | Activity (Cell membrane [11]): Tde | Activity (Cell membrane [12]): Dose-Dependent Effect | Activity (Cell membrane [13]): Active | Activity (Cell membrane [14]): Active

CC(=O)O[C@H]1C(=O)[C@@]2(C)[C@H]([C@H](OC(=O)c3ccccc3)[C@]3(O)C[C@H](OC(=O)[C@H](O)[C@@H](NC(=O)c4ccccc4)c4ccccc4)C(C)=C1C3(C)C)[C@]1(OC(C)=O)CO[C@@H]1C[C@@H]2O [PACLITAXEL]
Activity (MCF7 [15]): inactive | Activity (MCF7 [16]): Active | Activity (MCF7 [17]): inactive | Survival (MCF7 [18]): ~23.8% | Survival (MCF7 [19]): ~9.7% | Activity (Cell membrane [20]): inactive | Activity (Cell membrane [21]): inactive | Activity (Cell membrane [22]): inactive | Activity (Cell membrane [23]): inactive | Activity (Cell membrane [24]): inactive | Activity (Cell membrane [13]): inactive | Activity (Cell membrane [14]): inactive | Activity (MCF7 [25]): inactive | Activity (MCF7 [26]): Active | Activity (MCF7 [27]): 30.2% | Activity (MCF7 [28]): 48.4% | Activity (MCF7 [29]): 20.3% | Activity (MCF7 [30]): 1.13% | Activity (MCF7 [31]): Active | Activity (MCF7 [32]): Active | Activity (MCF7 [33]): Active | Activity (4T1 [34]): Active | Activity (4T1 [35]): 21.6% | Activity [36]: Non-Toxic | Activity [37]: Non-Toxic | Activity [38]: Non-Toxic | Activity [39]: Non-Toxic | Activity [40]: Non-Toxic | Activity [41]: Non-Toxic | Activity [42]: Non-Toxic | Activity (4T1 [43]): Active | Activity (4T1 [44]): Active | Activity [45]: Non-Toxic | Activity [46]: Toxic | LD50 at 168 h [47]: 39.7 mg/kg | Activity [48]: Non-Toxic | Activity [49]: Toxic | Activity [50]: Toxic
